From patent publication US6383773B2, “Penicillin conversion” (Massachusetts Institute of Technology, priority 1998, dated 2002)

How the values were obtained:
[1] = test system: growing S. clavuligerus NP1 cells; assay: Conversion of penicillin G into DAOG by growing cells (Example 2); assay type: cell-based
Method: Media: Seed culture was prepared using 250 ml baffled flasks containing 40 ml MST medium (90 mM MOPS, 3% Trypticase Soy Broth without Dextrose, 1% soluble starch) adjusted to pH 7.0 before autoclaving. Fermentation was carried out in the same medium or in the defined medium described by Mahro and Demain (1987) containing, per liter, 5 g MOPS; 3.5 g K2 HPO4; 1 ml trace solution containing 1 mg FeSO4.7H2O, 1 mg, MnCl2.4H2O, 1 mg ZnSO4.H2O and 1 mg CaCl2; 2 g L-asparagine; 0.6 g MgSO4.7H2O; 10 g glycerol; initial pH 7.0.
Culture Conditions: For the seed culture, each flask was inoculated with 50 μl of a spore suspension (prepared and stored in 20% glycerol at −80° C.) and incubated at 30° C. for 48 h. Fermentation were conducted in 250 ml baffled flasks containing 30 ml of medium at 30° C. at 250 rpm. Fermentations were started by transferring 1.5 ml of unwashed mycelium from the seed culture and their duration was 5 days. Once a day, samples were taken for pH, biomass and antibiotic analyses. Growth was measured as dry cell weight.
Bioassay: Cephalosporin type antibiotic(s) were detected by bioassay using Escherichia coli Ess seeded in LB (1% Tryptone, 0.5% NaCl, 0.5% Yeast Extract, 0.1% Glucose) 0.8% agar medium in the presence of penicillinase (Difco Laboratories, Detroit, Mich.). This is a narrow spectrum β-lactamase that destroys all kinds of penicillins but not cephalosporins. Assays were conducted with filter paper discs saturated with 100 μl of standard (deacetoxycephalosporin G) or supernatants from the fermentation flask. The diameters of zones of growth inhibition were measured after overnight incubation at 37° C.

[2] = test system: resting S. clavuligerus NP1 cells; assay: Penicillin G ring expansion by resting cells grown on alcohol (Example 3); assay type: cell-based; conditions: 3 hours of reaction, 5.6 mM penicillin G; for Cephalosporin Production Specific: per mg DCW
Method: Microorganisms, Media, and Culture Conditions: All experiments were done using S. clavuligerus NP1. Seed cultures were developed using 250 ml baffled flasks containing 40 ml of MST medium: 1% soluble starch (Sigma Chemical Co., St. Louis, Mo.); 3% Trypticase Soy Broth Without Dextrose (BBL, Cockeysville, Md.); 90 mM MOPS buffer, pH adjusted to 7.0 before autoclaving. Each flask was inoculated with 50 μl of a spore suspension (stored in 20% glycerol at −80° C.) and incubated at 30° C., 250 rpm for 48 h.
From a seed culture, 4 ml were transferred to 500 ml baffled flasks containing 80 ml of MT medium (3% Trypticase Soy Broth Without Dextrose; 90 mM MOPS buffer, pH adjusted to 7.0 before autoclaving) with or without 1-2% ethanol or methanol. Alcohols were added just before inoculation. Cells were grown at 30° C., 250 rpm for 24 h. Mycelia from each flask were washed twice and, finally, resuspended in 10 ml of distilled water. Four ml of this cell suspension were used in the ring-expanding biotransformation.
Ring Expansion: The ring expansion mixture contained 1.8 mM FeSO4, 1.28 mM α-ketoglutarate, 4 ml cell suspension, 5.6 mM penicillin G and 50 mM MOPS (pH 6.5) in a final volume of 10 ml contained in 250 ml baffled Erlenmeyer flasks. Additions were made in the order established by Shen et al. (Shen et al., Enzyme Microb. Technol. 17:231-234, 1984). Incubation was at 220 rpm and 30° C. for 1 to 3 h. Samples were collected and centrifuged. Biotransformation activity was detected by paper disc-agar diffusion bioassay.
Detection of Expandase Activity: Expandase activity was detected by paper disc-agar diffusion bioassay. Two superimposed paper discs (¼ inch; Schleicher & Schuell, Keene, N.H.) were saturated with 100 μl of each supernatant or standard. After each application, the discs were allowed to dry for 30 min in a laminar hood and then placed on Petri plates containing 10 ml of LB (1% tryptone, 0.5% NaCl, 0.5% yeast extract, 0.1% glucose) 0.8% agar medium containing 50,000 IU/ml of penicillinase (Difco Bacto penase concentrate, Difco Laboratories, Detroit, Mich.) seeded with E. coli ESS (a β-lactam-supersensitive mutant). The plates were incubated overnight at 37° C. The penicillinase used is a narrow spectrum β-lactamase that destroys the substrate penicillin G but not cephalosporins. The diameters of zones of growth inhibition were measured and quantified with calibration curves using pure DAOG as standard.
Dry Cell Weight (DCW) Assay: Two samples of 1 ml were taken from each cell suspension prepared in distilled water (10 ml), centrifuged (14,000×g, 10 min) and dried to constant weight at 65° C. The weights listed are those in the reaction mixture.

[3] = MST supplemented with 50 μg penicillin G/ml, after 72 hours of incubation
[4] = defined medium, 50 μg/ml penicillin G, after 48 hours
[5] = defined medium, 100 μg/ml penicillin G, after 48 hours
[6] = cells grown in MT + 1% E (ethanol)
[7] = cells grown in MT + 1% M (methanol)
[8] = cells grown in MT + 2% E (ethanol)
[9] = cells grown in MT + 2% M (methanol)

For `CC1(C)S[C@@H]2[C@H](NC(=O)Cc3ccccc3)C(=O)N2[C@H]1C(=O)O` [Penicillin G, penicillin G], the cephalosporin produced [1, 3] was 10.5 μg cephalosporin/ml, the conversion [1, 3] was “approximately 21%” and the “conversion” value ([1]; MST supplemented with 100 μg penicillin G/ml, after 96 hours) was “the same level of conversion”. For the same compound, the cephalosporin produced [1, 4] was 4.55 μg cephalosporin/ml, the conversion rate [1, 4] was 9.1% and the cephalosporin produced [1, 5] was 10.5 μg cephalosporin/ml. For the same compound, the conversion rate [1, 5] was 10.5%, the “Cephalosporin Production Volumetric” value [2, 6] was 12.3 µg/mL and the “Cephalosporin Production Specific” value [2, 6] was 3.6 µg/mg. The “Cephalosporin Production Volumetric” value [2, 7] was 5.2 µg/mL, the “Cephalosporin Production Specific” value [2, 7] was 1.7 µg/mg and the “Cephalosporin Production Volumetric” value [2, 8] was 6.3 µg/mL. For the same compound, the “Cephalosporin Production Specific” value [2, 8] was 7.0 µg/mg, the “Cephalosporin Production Volumetric” value [2, 9] was 4.3 µg/mL and the “Cephalosporin Production Specific” value [2, 9] was 1.5 µg/mg. The “Cephalosporin Production Volumetric” value ([2]; cells grown in MT) was 5.3 µg/mL and the “Cephalosporin Production Specific” value ([2]; cells grown in MT) was 1.5 µg/mg.
